Usually viability stands for the share of living cells, or the viability signal relative to a control. A lower viability goes with a greater loss of cells.

Data set [1] relates to Human liver epithelial cells (HEP G2). Description: MTT cytotoxicity testing. The following applies: for HEP G2 toxicity against 70% viability cut-off (in words): concentrations lower than 50 µM. Here is the method: (§1) For the scaffold to have translational significance, it must be non-toxic to human cells. Accordingly, an initial assessment of toxicity was performed using human liver epithelial (HEP G2) cells via a 3-(4,5-dimethylthiazol-2-yl)-2,5-diphenyltetrazolium bromide (MTT) assay in the presence of up to 400 µM of each analog. […] Viability of 70% was used as the cut-off criteria for toxicity (Figure 4, dashed line), according to ISO guidelines, as described in Materials and Methods.
(§2) Human liver epithelial cells (HEP G2) were cultured in Dulbecco’s Modified Eagle Medium (DMEM; Fisher Scientific, Hampton, NH) supplemented with 10% heat inactivated fetal bovine serum (FBS; Corning Life Sciences) and 1% penicillin/streptomycin (Thermofisher Scientific). Cells were incubated at 37 °C with 5% CO2 in Nunc (Roskilde, Denmark) tissue culture flasks. Cells were grown in monolayers until exceeding 70% confluency, removed with 0.25% trypsin (Fisher Scientific), resuspended in fresh medium, and used to seed approximately 2.5 × 10^5 cells/mL into each well of a 96 well tissue culture microplate (Nunc) containing 200 µL of fresh medium. Cytotoxicity testing was conducted according to the guidelines of the International Organization for Standardization (ISO) 10993-5:2009. After 24 h of incubation, the cell media was removed, and adherent cells were washed with 1× phosphate buffered saline (PBS). Cell media was supplemented with 5% per volume of compound at final concentrations from 12.5 µM to 400 µM and incubated 20–24 h at 37 °C with 5% CO2. After incubation, medium supplemented with compound was removed from the wells and replaced with 100 µL of fresh culture medium. Then, 10 µL of 12 mM (3-(4,5-dimethylthiazol-2-yl)-2,5-diphenyltetrazolium bromide (MTT) stock reagent (CyQUANT MTT cell proliferation kit; Thermofisher Scientific) was added to each well. After labeling the cells with the MTT reagent, all but 25 µL of medium was removed from the wells, and 50 µL of DMSO was added to each well and mixed thoroughly and cells were incubated at 37 °C with 5% CO2 for 10 min. After incubation, wells were mixed again and using a SPECTRAmax5 microplate reader, absorbance was read at 540 nm. Cells were treated with 125 µg/mL mitomycin C (Fisher Scientific) to serve as a positive control and 2% DMSO as a negative control. […] All compounds were tested in two independent experiments in triplicate and cell viability was expressed as a percent of the negative control.
(Formazan colour is commonly taken as a measure of viable cells.)

A short description of data set [2]: MTT cytotoxicity testing. The following applies: human, HEP G2 cells (human liver epithelial cells). The procedure: as §1, §2
Data set [3] has as its system S. aureus clinical isolate USA300. Description: Murine corneal infection (keratitis) model. Type of data set: in vivo, Staphylococcus aureus. The following applies: BALB/c mice, 50 µM topical 5 µL every 6 h for 48 h; not statistically different (t-test). The procedure:
Corneal infections were induced by inoculating corneal scratches with S. aureus, eyes were treated with RNP0012 6 h later and every 6 h thereafter for 48 h and bacterial burden was enumerated.
In vivo efficacy studies utilizing a murine model of corneal S. aureus infection were performed as previously described. Female BALB/c mice four to six weeks of age were acquired from Charles River ([…], MA, USA) and housed according to the approved University of Rochester Medical Center Council on Animal Research (UCAR) protocol. S. aureus clinical isolate USA300 was grown overnight on both MH agar and MH broth at 37 °C. Broth cultures were centrifuged at 2000× g for 10 min at 4 °C and the pellet was resuspended in 1× sterile PBS in a volume equivalent to the starting volume. The mice were anesthetized with 100 mg kg^−1 ketamine (Par Pharmaceutica; Chestnut Ridge, NY, USA) and 10 mg kg^−1 xylazine (Akorn, Inc.; Lake Forest, IL, USA) and 0.5% proparacaine (Akorn, Inc.) was applied to the right eye of each mouse. Excess proparacaine was blotted from the ocular surface. Using a 27-gauge needle, inoculated with a single colony of S. aureus USA300, three 2 mm scratches were made across the right cornea. […] The animals were euthanized after 48 h and whole eyes were excised, homogenized, and plated to quantitate viable S. aureus colonies present. […]

For `O=C(Nc1cccc(F)c1)c1c(NC(=O)C(F)(F)F)sc2c1CCCCC2` [RNP0008], the “HEP G2 toxicity against 70% viability cut-off (in words)” value in data set [1] was “did not exhibit toxicity that was beyond the 70% cut-off criteria”. `O=C(Nc1ccc(C(F)(F)F)cc1)c1c(NC(=O)C(F)(F)F)sc2c1CCCCC2` [RNP0012] registered a viability at 50 µM in data set [2] of 68%. In addition, the Therapeutic index in data set [1] (human) was ~ 260. Further, the “Fold of the 50 µM cytotoxicity dose above the MIC against S. aureus” value in data set [1] (human, 50 µM) amounted to 263 fold. Further, the “CFU reduction in comparison to vehicle treated animals” value in data set [3] amounted to 1.2 log CFU.

On to `O=C(Nc1ccc(F)cc1)c1c(NC(=O)C(F)(F)F)sc2c1CCCCC2` [RNP0009], for which, in data set [1], the “HEP G2 toxicity against 70% viability cut-off (in words)” value is on record as “did not exhibit toxicity that was beyond the 70% cut-off criteria”. On the same count and under the same terms, then `Cc1cccc(NC(=O)c2c(NC(=O)C(F)(F)F)sc3c2CCCCC3)c1` [RNP0010], with “did not exhibit toxicity that was beyond the 70% cut-off criteria”.

These data come from publication PMC8066339, “Optimization of 2-Acylaminocycloalkylthiophene Derivatives for Activity against Staphylococcus aureus RnpA” (Antibiotics, 2021).
